According to patent publication US20200254065A1, “LONG-ACTING GLP-2 ANALOGS” (OPKO Biologics Ltd., priority 2019, published 2020):
Square brackets hold non-standard residues; d marks the D form. Ends that are not written are not given here. Peptide text beside a SMILES is read from it. Nle = CCCC[C@H](N)C(=O)O

T1: GLP-2 receptor (Homo sapiens, UniProt O95838)
T1 sequence (O95838 1-553): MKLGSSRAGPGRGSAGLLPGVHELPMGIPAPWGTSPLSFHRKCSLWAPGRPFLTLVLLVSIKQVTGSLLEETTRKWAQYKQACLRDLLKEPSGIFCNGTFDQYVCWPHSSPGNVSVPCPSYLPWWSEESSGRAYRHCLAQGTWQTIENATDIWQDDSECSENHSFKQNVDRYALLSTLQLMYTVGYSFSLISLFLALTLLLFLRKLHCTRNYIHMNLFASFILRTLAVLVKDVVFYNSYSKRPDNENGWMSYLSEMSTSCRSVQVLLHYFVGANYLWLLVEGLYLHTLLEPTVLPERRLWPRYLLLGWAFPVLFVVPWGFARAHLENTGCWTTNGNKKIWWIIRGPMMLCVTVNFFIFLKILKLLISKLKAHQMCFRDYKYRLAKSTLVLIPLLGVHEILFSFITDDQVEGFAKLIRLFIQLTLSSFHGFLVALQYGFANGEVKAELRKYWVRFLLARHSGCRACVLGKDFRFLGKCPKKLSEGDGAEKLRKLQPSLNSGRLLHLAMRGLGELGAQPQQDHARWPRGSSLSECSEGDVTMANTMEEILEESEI

T2: GLP-2 receptor (UniProt O95838 1-553, limits assumed)
T2 sequence (looked up): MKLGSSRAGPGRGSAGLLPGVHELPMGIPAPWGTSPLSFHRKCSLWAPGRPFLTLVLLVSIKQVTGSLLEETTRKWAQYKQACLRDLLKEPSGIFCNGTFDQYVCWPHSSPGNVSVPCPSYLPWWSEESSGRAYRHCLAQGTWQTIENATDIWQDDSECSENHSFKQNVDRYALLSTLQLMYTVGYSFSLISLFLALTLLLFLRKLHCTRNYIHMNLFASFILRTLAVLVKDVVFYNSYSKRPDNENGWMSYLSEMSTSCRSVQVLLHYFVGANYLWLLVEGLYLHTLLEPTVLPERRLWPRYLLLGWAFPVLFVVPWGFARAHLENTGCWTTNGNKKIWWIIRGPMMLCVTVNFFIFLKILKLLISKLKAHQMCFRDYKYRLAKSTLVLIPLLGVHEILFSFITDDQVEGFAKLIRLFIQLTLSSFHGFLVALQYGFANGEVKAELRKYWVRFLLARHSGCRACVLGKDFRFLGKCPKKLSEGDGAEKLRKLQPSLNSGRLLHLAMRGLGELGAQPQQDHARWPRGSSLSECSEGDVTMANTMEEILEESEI


Key:
[1] = molecular target: T1, GLP-2 receptor; test: GLP-2 receptor Cell Based Assay (CBA); conditions: Table 7
Protocol: Evaluation of in vitro binding affinity of the different peptides was assessed by using Cell Based Assay (CBA) in the presence of escalating doses of the different peptides.

[2] = Stability of GLP-2 analogues on incubation at 37° C. (appearance, O.D. reading, RP-HPLC); type: physicochemical; conditions: following 48 h incubation at 37° C.; for Stability via RP-HPLC main peak: change of main peak
Protocol: The GLP-2 analogues were tested for stability via appearance, O.D. reading (A.280, and A.325) and RP-HPLC (purity, and peak area) following t=0, 1 day, and 48 h incubation at 37° C.

[3] = Pharmacokinetics of modified GLP-2 variants in rats; type: in vivo; conditions: rat, serum, peptide dose 15 mg/kg
[4] = system: small intestine; test: Intestine weight model in rats; type: in vivo, SD rats; conditions: modified peptides; two injections on days 1 & 3 at 1 mg/kg; intestine weight on day 6
Protocol: In the pharmacology study, the conjugates were injected subcutaneously twice, on days 1 and 3 at 1 mg/kg (peptide dose) and intestine weight was performed on day 6. In addition to the PEGylated conjugates, GLP-2-Gly2 was injected at the same dose and regimen for comparison. The average of the intestine weight of each group was compared to that of the vehicle group.
In a different study, several of the PEGylated teduglutide were injected as a single dose at 1 mg/kg and the intestine weight performed on day 6.
Pharmacology and pharmacokinetic studies were performed with the most promising GLP-2 variants to evaluate their efficacy and longevity, respectively. The intestine weight model in rats was conducted to evaluate efficacy, by measuring percent increase of the intestine weight of treated animals over the vehicle group. In this study, the peptides were injected twice, on days 1 and 3 at 1 mg/kg and the intestine weight was conducted on day 6.
PEG20-FMS-V6, PEG20-Fmoc-V6 and PEG40-FMS-V6 were injected once at 1 mg/kg dose on day 1, while group D was also injected twice on days 1 & 3 at 1 mg/kg. The intestine weight was performed on day 6.
Three different reversible PEGylated GLP-2 variants using mutated peptide #4 were injected at 2 mg/kg (peptide dose), once every 6 days for 12 days. On the 12th day the intestine was weighted and compared to the control group. PEG30-FMS-V4 was injected at 0.5 mg/kg as well to evaluate the efficacy dose range.
In addition to PEG30-FMS-V4 and PEG30-Fmoc-V4 that have been pharmacology evaluated by small intestinal weight evaluation (As shown in Example 5), four other reversible PEGylated variant 4 (“V4”) conjugates and two reversible linker-V4 conjugates were synthesized. All the above were injected to 6 normal SD rats/group once at 2 mg/kg (peptide dose), while on the 6th day, animals were scarified, and the small intestine was weighted followed by histopathology evaluation. […] Therefore, slices from three areas of the intestine (duodenum, jejunum and ilium) were stained with hematoxylin and eosin and at least 7 Crypts+Villi length/slice were measured. The averaged Villi+Crypt length of each treatment group (n=6) was compared to the vehicle group (negative control) and calculated as percentage increase over vehicle.
Additional studies were conducted to evaluate the efficacy of the V4 peptide and the reversible MAL-FMS-V4. The long acting effect of V4 and the conjugates were evaluated at Day 6 and Day 10 following treatment (Study reference 15203). All test groups (n=9) were injected SC with 2 mg/kg peptide content at Day 1. At Days 6 and 10, animals were sacrificed and the small intestine underwent histopathology evaluation (6 animals for Day 6, 3 animals for Day 10). FIGS. 12 and 13 show the pharmacology effect of different V4 conjugates and Apraglutide and Glepaglutide as measured by the percent increase of small intestine weight and crypts plus villi length over vehicle, respectively.
To further evaluate the pharmacology efficacy of V4 and Cys-FMS-V4, an experiment was performed to test their acute and prolonged effect on the small intestine (Study reference 15205). In addition, V4 and Cys-FMS-V4 were administrated as a single SC injection on Day 1 at 3 different doses (0.5, 2.0 or 8.0 mg/kg peptide content, 6 rats per group) to assess the dose dependence effect. The pharmacological effect on small intestine weight and villi plus crypts length was measured at Days 3, 7 and 14, and the results are presented in FIGS. 15 and 16. […] It should be noted that this acute response was higher for V4 compared to Cys-FMS-V4 at all 3 dose levels.

[5] = Solubility and stability in different buffer systems, concentrations, incubation and freeze-thaw; type: physicochemical; conditions: Histidine and NaPi, pH 6.8 to 7.5; 1-10 mg/mL; up to 3 days at 37° C.; up to three freeze-thaw cycles
[6] = molecular target: T2, GLP-2 receptor; test: cell-based or functional assay
[7] = molecular target: GLP-2 receptor (UniProt O95838); test: cell-based or functional assay

| EC50 Ratio to Teduglutide [1] | Solubility via appearance [2] | Stability via RP-HPLC main peak [2] | half-life [3] | CMC perspective, combining purity and solubility [5] | Molecule | Increase of intestine weight over vehicle (%) [4] | further results |
| --- | --- | --- | --- | --- | --- | --- | --- |
| 2.5 | V3: clear | V3: −4% | 1.9 h | – | CCCC[C@H](NC(=O)[C@H](CCC(=O)O)NC(=O)[C@H](CC(=O)O)NC(=O)[C@H](CO)NC(=O)[C@H](Cc1ccccc1)NC(=O)[C@H](CO)NC(=O)CNC(=O)[C@H](CCC(=O)O)NC(=O)CNC(=O)[C@@H](N)Cc1c[nH]cn1)C(=O)N[C@H](Cc1c[nH]cn1)C(=O)N[C@H](C(=O)N[C@H](C(=O)N[C@@H](CC(C)C)C(=O)N[C@@H](CC(=O)O)C(=O)N[C@@H](CC(N)=O)C(=O)N[C@@H](CC(C)C)C(=O)N[C@@H](C)C(=O)N[C@@H](C)C(=O)N[C@@H](CCCNC(=N)N)C(=O)N[C@@H](CC(=O)O)C(=O)N[C@@H](Cc1ccccc1)C(=O)N[C@H](C(=O)N[C@@H](CC(N)=O)C(=O)N[C@@H](Cc1c[nH]c2ccccc12)C(=O)N[C@@H](CC(C)C)C(=O)N[C@H](C(=O)N[C@@H](CCC(N)=O)C(=O)N[C@H](C(=O)N[C@@H](CCCCN)C(=O)N[C@H](C(=O)N[C@H](C(=O)N[C@@H](CC(=O)O)C(N)=O)[C@@H](C)O)[C@@H](C)CC)[C@@H](C)O)[C@@H](C)CC)[C@@H](C)CC)[C@@H](C)CC)[C@@H](C)O [Variant 3] (H-HGEGSFSDE[Nle][dH]TILDNLAARDFINWLIQTKITD-NH2) | 4% | – |
| 2.4 | V5: clear | – | 6.5 h | – | CCCC[C@H](NC(=O)[C@H](CCC(=O)O)NC(=O)[C@H](CC(=O)O)NC(=O)[C@H](CO)NC(=O)[C@H](Cc1ccccc1)NC(=O)[C@H](CO)NC(=O)CNC(=O)[C@H](CCC(=O)O)NC(=O)CNC(=O)[C@@H](N)Cc1c[nH]cn1)C(=O)N[C@@H](CC(N)=O)C(=O)N[C@H](C(=O)N[C@H](C(=O)N[C@@H](CC(C)C)C(=O)N[C@@H](CC(=O)O)C(=O)N[C@@H](Cc1ccc(O)cc1)C(=O)N[C@@H](CC(C)C)C(=O)N[C@@H](C)C(=O)N[C@@H](C)C(=O)N[C@@H](CCCNC(=N)N)C(=O)N[C@@H](CC(=O)O)C(=O)N[C@@H](Cc1ccccc1)C(=O)N[C@H](C(=O)N[C@@H](CC(N)=O)C(=O)N[C@@H](Cc1c[nH]c2ccccc12)C(=O)N[C@@H](CC(C)C)C(=O)N[C@H](C(=O)N[C@@H](CCC(N)=O)C(=O)N[C@H](C(=O)N[C@@H](CCCCN)C(=O)N[C@H](C(=O)N[C@H](C(=O)N[C@@H](CC(=O)O)C(N)=O)[C@@H](C)O)[C@@H](C)CC)[C@@H](C)O)[C@@H](C)CC)[C@@H](C)CC)[C@@H](C)CC)[C@@H](C)O [Variant 5] (H-HGEGSFSDE[Nle]NTILDYLAARDFINWLIQTKITD-NH2) | 10% | – |

Continued, molecule first:

| Molecule | EC50 Ratio to Teduglutide [1] | Solubility via appearance [2] | Stability via RP-HPLC main peak [2] | half-life [3] | CMC perspective, combining purity and solubility [5] | Increase of intestine weight over vehicle (%) [4] | further results |
| --- | --- | --- | --- | --- | --- | --- | --- |
| CCCC[C@H](NC(=O)[C@H](CCC(=O)O)NC(=O)[C@H](CC(=O)O)NC(=O)[C@H](CO)NC(=O)[C@H](Cc1ccccc1)NC(=O)[C@H](CO)NC(=O)CNC(=O)[C@H](CCC(=O)O)NC(=O)CNC(=O)[C@@H](N)Cc1c[nH]cn1)C(=O)N[C@@H](CC(N)=O)C(=O)N[C@H](C(=O)N[C@H](C(=O)N[C@@H](CC(C)C)C(=O)N[C@@H](CC(=O)O)C(=O)N[C@@H](CC(C)C)C(=O)N[C@@H](CC(C)C)C(=O)N[C@@H](C)C(=O)N[C@@H](C)C(=O)N[C@@H](CCCNC(=N)N)C(=O)N[C@@H](CC(=O)O)C(=O)N[C@@H](Cc1ccccc1)C(=O)N[C@H](C(=O)N[C@@H](CC(N)=O)C(=O)N[C@@H](Cc1c[nH]c2ccccc12)C(=O)N[C@@H](CC(C)C)C(=O)N[C@H](C(=O)N[C@@H](CCC(N)=O)C(=O)N[C@H](C(=O)N[C@@H](CCCCN)C(=O)N[C@H](C(=O)N[C@H](C(=O)N[C@@H](CC(=O)O)C(=O)O)[C@@H](C)O)[C@@H](C)CC)[C@@H](C)O)[C@@H](C)CC)[C@@H](C)CC)[C@@H](C)CC)[C@@H](C)O [Variant 6] (H-HGEGSFSDE[Nle]NTILDLLAARDFINWLIQTKITD-OH) | 3.8 | V6: clear | (~1.5%) | 12.1 h | outperformed the rest of the peptides | 43% | – |
| GLP2 DiscoverX Kit (peptide) | – | – | – | – | – | – | EC50 (nM) Average, GLP2-receptor CBA, 3 independent assays [6]: 0.8 nM; EC50 Ratio to Teduglutide, CBA [6]: 1.8 fold; EC50 Ratio to Teduglutide, GLP2-receptor CBA [6]: 1.3 fold; EC50 Ratio to Variant 4, GLP2-receptor CBA [6]: 0.7 fold; EC50 [nM], Cell Based Assay (CBA), cells overexpressing the GLP-2 receptor [6]: 10.1 nM |
| CCCC[C@H](NC(=O)[C@H](CCC(=O)O)NC(=O)[C@H](CC(=O)O)NC(=O)[C@H](CO)NC(=O)[C@H](Cc1ccccc1)NC(=O)[C@H](CO)NC(=O)CNC(=O)[C@H](CCC(=O)O)NC(=O)CNC(=O)[C@@H](N)Cc1c[nH]cn1)C(=O)N[C@@H](CC(N)=O)C(=O)N[C@H](C(=O)N[C@H](C(=O)N[C@@H](CC(C)C)C(=O)N[C@@H](CC(=O)O)C(=O)N[C@@H](Cc1ccc(O)cc1)C(=O)N[C@@H](CC(C)C)C(=O)N[C@@H](C)C(=O)N[C@@H](C)C(=O)N[C@@H](CCCNC(=N)N)C(=O)N[C@@H](CC(=O)O)C(=O)N[C@@H](Cc1ccccc1)C(=O)N[C@H](C(=O)N[C@@H](CC(N)=O)C(=O)N[C@@H](Cc1c[nH]c2ccccc12)C(=O)N[C@@H](CC(C)C)C(=O)N[C@H](C(=O)N[C@@H](CCC(N)=O)C(=O)N[C@H](C(=O)N[C@@H](CCCCN)C(=O)N[C@H](C(=O)N[C@H](C(=O)N[C@@H](CC(=O)O)C(=O)O)[C@@H](C)O)[C@@H](C)CC)[C@@H](C)O)[C@@H](C)CC)[C@@H](C)CC)[C@@H](C)CC)[C@@H](C)O [Variant 7] (H-HGEGSFSDE[Nle]NTILDYLAARDFINWLIQTKITD-OH) | 3.0 | V7: clear | (no change | 5.8 h | outperformed the rest of the peptides | 12% | – |
| HGEGTFSSELATILDALAARDFIAWLIATKITDKKKKKK-NH2 [Glepaglutide (V10)] | – | – | – | – | – | – | EC50 (nM) Average, GLP2-receptor CBA, 3 independent assays [7]: 5.4 nM; EC50 Ratio to Teduglutide, GLP2-receptor CBA [7]: 9.4 fold; EC50 Ratio to Variant 4, GLP2-receptor CBA [7]: 5.3 fold |
